# Experimental data as given in US20150133431A1, “GGA DERIVATIVES” (COYOTE PHARMACEUTICALS, INC., priority 2013, published 2015).
# Key:
# cells = assay: cytoprotective effects on cells, GGA isomers; assay type: cell-based
# Description: The isolated cis- and trans-compounds described herein are also useful in assays which access a compound having putative cytoprotective effects. In particular, in such assays, the cis-isomer of GGA will behave as baseline or negative control and the trans-isomer as a positive control. The putative compound is tested in the assay described variously herein and its activity correlated against the cis- and trans-isomers. […] Accordingly, the cis-isomer finds utility as a negative control in the assay.
# [1] = in certain situations; Katsuno et al., PNAS 2003; cited from earlier work
smiles,measurement,setting,value
"CC(=O)CC/C=C(/C)CC/C=C(\C)CC/C=C(\C)CCC=C(C)C [cis-isomer, 5Z,9E,13E-Geranylgeranyl acetone]",effect of increasing amounts of cis-isomer on activity of trans-isomer,cells; increasing amounts of the cis-isomer,antagonize the activity of the trans-isomer
"CC(=O)CC/C=C(\C)CC/C=C(\C)CC/C=C(\C)CCC=C(C)C [trans-isomer of GGA, 5E,9E,13E-Geranylgeranyl acetone]",cytoprotective efficacy compared with 1:2 to 1:3 cis:trans mixture of GGA and cis-isomer alone,cells; comparison of isomers,more efficacious at lower concentrations
"CC(=O)CC/C=C(\C)CC/C=C(\C)CC/C=C(\C)CCC=C(C)C [GGA, Geranylgeranyl acetone]",concentration of GGA required to exert a cytoprotective effect,[1],more than 600 mg per kg per day
